Calls of active or inactive are those of the source. The rule behind the calls is not given here.
System: CCRIS mutagenicity, Ames/micronucleus/aberration tests
Experiment: CCRIS mutagenicity studies
[1] = Test System: AMES SALMONELLA TYPHIMURIUM, Strain/Indicator: TA98, Metabolic Activation: NONE, Method: PREINCUBATION
[2] = Test System: AMES SALMONELLA TYPHIMURIUM, Strain/Indicator: TA98, Metabolic Activation: RAT, LIVER, S-9, AROCLOR 1254 (10%), Method: PREINCUBATION
[3] = Test System: AMES SALMONELLA TYPHIMURIUM, Strain/Indicator: TA100, Metabolic Activation: HAMSTER, LIVER, S-9, AROCLOR 1254 (10%), Method: PREINCUBATION
[4] = Test System: AMES SALMONELLA TYPHIMURIUM, Strain/Indicator: TA100, Metabolic Activation: NONE, Method: PREINCUBATION
[5] = Test System: AMES SALMONELLA TYPHIMURIUM, Strain/Indicator: TA100, Metabolic Activation: RAT, LIVER, S-9, AROCLOR 1254 (10%), Method: PREINCUBATION
[6] = Test System: AMES SALMONELLA TYPHIMURIUM, Strain/Indicator: TA1535, Metabolic Activation: HAMSTER, LIVER, S-9, AROCLOR 1254 (10%), Method: PREINCUBATION
[7] = Test System: AMES SALMONELLA TYPHIMURIUM, Strain/Indicator: TA1535, Metabolic Activation: NONE, Method: PREINCUBATION
[8] = Test System: AMES SALMONELLA TYPHIMURIUM, Strain/Indicator: TA1535, Metabolic Activation: RAT, LIVER, S-9, AROCLOR 1254 (10%), Method: PREINCUBATION
[9] = Test System: AMES SALMONELLA TYPHIMURIUM, Strain/Indicator: TA97, Metabolic Activation: HAMSTER, LIVER, S-9, AROCLOR 1254 (10 OR 30%), Method: PREINCUBATION
[10] = Test System: AMES SALMONELLA TYPHIMURIUM, Strain/Indicator: TA97, Metabolic Activation: NONE, Method: PREINCUBATION
[11] = Test System: AMES SALMONELLA TYPHIMURIUM, Strain/Indicator: TA98, Metabolic Activation: HAMSTER, LIVER, S-9, AROCLOR 1254 (10 OR 30%), Method: PREINCUBATION

For `O=C(O)c1ccc2c(c1)C(=O)OC2=O`, which mutagenic call (Test System: AMES SALMONELLA TYPHIMURIUM, Strain/Indicator: TA98, Metabolic Activation: HAMSTER, LIVER, S-9, AROCLOR 1254 (10%), Method: PREINCUBATION) is on record?
The mutagenic call was “inactive; negative”.

And the mutagenic call [1]?
The mutagenic call was “inactive; negative”.

What about the mutagenic call (Test System: AMES SALMONELLA TYPHIMURIUM, Strain/Indicator: TA98, Metabolic Activation: RAT LIVER S-9, PHENOBARBITAL AND BETA-NAPHTHOFLAVONE, Method: PREINCUBATION) of the same compound?
The mutagenic call was “inactive; negative”.

What about the mutagenic call [2] of the same compound?
The mutagenic call was “inactive; negative”.

And the mutagenic call [3]?
The mutagenic call was “inactive; negative”.

What about the mutagenic call [4] of the same compound?
Its mutagenic call is “inactive; negative”.

What about the mutagenic call (Test System: AMES SALMONELLA TYPHIMURIUM, Strain/Indicator: TA100, Metabolic Activation: RAT LIVER S-9, PHENOBARBITAL AND BETA-NAPHTHOFLAVONE, Method: PREINCUBATION) of the same compound?
The mutagenic call was “inactive; negative”.

And the mutagenic call [5]?
The mutagenic call was “inactive; negative”.

What about the mutagenic call (Test System: AMES SALMONELLA TYPHIMURIUM, Strain/Indicator: TA102, Metabolic Activation: NONE, Method: PREINCUBATION) of the same compound?
Its mutagenic call is “inactive; negative”.

And the mutagenic call (Test System: AMES SALMONELLA TYPHIMURIUM, Strain/Indicator: TA102, Metabolic Activation: RAT LIVER S-9, PHENOBARBITAL AND BETA-NAPHTHOFLAVONE, Method: PREINCUBATION)?
The mutagenic call was “inactive; negative”.

What about the mutagenic call (Test System: AMES SALMONELLA TYPHIMURIUM, Strain/Indicator: TA104, Metabolic Activation: NONE, Method: PREINCUBATION) of the same compound?
Its mutagenic call is “inactive; negative”.

What about the mutagenic call (Test System: AMES SALMONELLA TYPHIMURIUM, Strain/Indicator: TA104, Metabolic Activation: RAT LIVER S-9, PHENOBARBITAL AND BETA-NAPHTHOFLAVONE, Method: PREINCUBATION) of the same compound?
The mutagenic call was “inactive; negative”.

What about the mutagenic call [6] of the same compound?
The mutagenic call was “inactive; negative”.

What about the mutagenic call [7] of the same compound?
The mutagenic call was “inactive; negative”.

And the mutagenic call (Test System: AMES SALMONELLA TYPHIMURIUM, Strain/Indicator: TA1535, Metabolic Activation: RAT LIVER S-9, PHENOBARBITAL AND BETA-NAPHTHOFLAVONE, Method: PREINCUBATION)?
The mutagenic call was “inactive; negative”.

And the mutagenic call [8]?
Its mutagenic call is “inactive; negative”.

And the mutagenic call (Test System: AMES SALMONELLA TYPHIMURIUM, Strain/Indicator: TA1537, Metabolic Activation: HAMSTER, LIVER, S-9, AROCLOR 1254 (10%), Method: PREINCUBATION)?
Its mutagenic call is “inactive; negative”.

What about the mutagenic call (Test System: AMES SALMONELLA TYPHIMURIUM, Strain/Indicator: TA1537, Metabolic Activation: NONE, Method: PREINCUBATION) of the same compound?
Its mutagenic call is “inactive; negative”.

And the mutagenic call (Test System: AMES SALMONELLA TYPHIMURIUM, Strain/Indicator: TA1537, Metabolic Activation: RAT LIVER S-9, PHENOBARBITAL AND BETA-NAPHTHOFLAVONE, Method: PREINCUBATION)?
The mutagenic call was “inactive; negative”.

What about the mutagenic call (Test System: AMES SALMONELLA TYPHIMURIUM, Strain/Indicator: TA1537, Metabolic Activation: RAT, LIVER, S-9, AROCLOR 1254 (10%), Method: PREINCUBATION) of the same compound?
Its mutagenic call is “inactive; negative”.

What about the mutagenic call (Test System: E.COLI, Strain/Indicator: WP2UVRA/PKM101, Metabolic Activation: NONE, Method: PREINCUBATION) of the same compound?
The mutagenic call was “inactive; negative”.

What about the mutagenic call (Test System: E.COLI, Strain/Indicator: WP2UVRA/PKM101, Metabolic Activation: RAT LIVER S-9, PHENOBARBITAL AND BETA-NAPHTHOFLAVONE, Method: PREINCUBATION) of the same compound?
The mutagenic call was “inactive; negative”.

What about the mutagenic call (Test System: E.COLI, Strain/Indicator: WP2UVRA, Metabolic Activation: NONE, Method: PREINCUBATION) of the same compound?
Its mutagenic call is “inactive; negative”.

And the mutagenic call (Test System: E.COLI, Strain/Indicator: WP2UVRA, Metabolic Activation: RAT LIVER S-9, PHENOBARBITAL AND BETA-NAPHTHOFLAVONE, Method: PREINCUBATION)?
Its mutagenic call is “inactive; negative”.

How did the mutagenic call (Test System: AMES SALMONELLA TYPHIMURIUM, Strain/Indicator: TA98, Metabolic Activation: NONE, Method: SUSPENSION/PLATE) turn out when `[CH3][Sn]([CH3])([CH3])[Cl]` was run?
Its mutagenic call is “inactive; negative”.

What about the mutagenic call (Test System: AMES SALMONELLA TYPHIMURIUM, Strain/Indicator: TA100, Metabolic Activation: NONE, Method: SUSPENSION/PLATE) of the same compound?
Its mutagenic call is “inactive; negative”.

How did the mutagenic call (Test System: AMES SALMONELLA TYPHIMURIUM, Strain/Indicator: TA98, Metabolic Activation: NONE, Method: STANDARD PLATE) turn out when `ClCc1ccc(CCl)cc1` was run?
Its mutagenic call is “inactive; negative”.

How did the mutagenic call (End Point: IN VIVO MICRONUCLEUS, Test System: BONE MARROW POLYCHROMATIC ERYTHROCYTES, Species: MOUSE, Strain/Sex: DDY/MALE, Route: IP) turn out when `[K+]` was run?
Its mutagenic call is “inactive; negative”.

What about the mutagenic call (End Point: In vitro chromosomal aberrations, Test System: Chinese hamster lung (CHL) cells, Metabolic Activation: None) of the same compound?
Its mutagenic call is “active; positive (structural changes)”.

And the mutagenic call [9]?
The mutagenic call was “inactive; negative”.

And the mutagenic call [10]?
The mutagenic call was “inactive; negative”.

And the mutagenic call (Test System: AMES SALMONELLA TYPHIMURIUM, Strain/Indicator: TA97, Metabolic Activation: RAT, LIVER, S-9, AROCLOR 1254 (10 OR 30%), Method: PREINCUBATION)?
Its mutagenic call is “inactive; negative”.

And the mutagenic call [11]?
The mutagenic call was “inactive; negative”.

What about the mutagenic call [1] of the same compound?
The mutagenic call was “inactive; negative”.

What about the mutagenic call (Test System: AMES SALMONELLA TYPHIMURIUM, Strain/Indicator: TA98, Metabolic Activation: RAT, LIVER, S-9, AROCLOR 1254 (10 OR 30%), Method: PREINCUBATION) of the same compound?
Its mutagenic call is “inactive; negative”.

And the mutagenic call (Test System: AMES SALMONELLA TYPHIMURIUM, Strain/Indicator: TA100, Metabolic Activation: HAMSTER, LIVER, S-9, AROCLOR 1254 (10 OR 30%), Method: PREINCUBATION)?
Its mutagenic call is “inactive; negative”.

What about the mutagenic call [4] of the same compound?
Its mutagenic call is “inactive; negative”.

What about the mutagenic call (Test System: AMES SALMONELLA TYPHIMURIUM, Strain/Indicator: TA100, Metabolic Activation: RAT, LIVER, S-9, AROCLOR 1254 (10 OR 30%), Method: PREINCUBATION) of the same compound?
The mutagenic call was “inactive; negative”.

What about the mutagenic call (Test System: AMES SALMONELLA TYPHIMURIUM, Strain/Indicator: TA1535, Metabolic Activation: HAMSTER, LIVER, S-9, AROCLOR 1254 (10 OR 30%), Method: PREINCUBATION) of the same compound?
The mutagenic call was “inactive; negative”.

And the mutagenic call [7]?
The mutagenic call was “inactive; negative”.

And the mutagenic call (Test System: AMES SALMONELLA TYPHIMURIUM, Strain/Indicator: TA1535, Metabolic Activation: RAT, LIVER, S-9, AROCLOR 1254 (10 OR 30%), Method: PREINCUBATION)?
Its mutagenic call is “inactive; negative”.

How did the mutagenic call [9] turn out when `O.O.O.O.O.O.O=[N+]([O-])[O-].O=[N+]([O-])[O-].O=[N+]([O-])[O-].[La+3]` was run?
The mutagenic call was “inactive; negative”.

And the mutagenic call [10]?
Its mutagenic call is “inactive; negative”.

And the mutagenic call (Test System: AMES SALMONELLA TYPHIMURIUM, Strain/Indicator: TA97, Metabolic Activation: RAT, LIVER, S-9, AROCLOR 1254 (10%), Method: PREINCUBATION)?
Its mutagenic call is “inactive; negative”.

What about the mutagenic call (Test System: AMES SALMONELLA TYPHIMURIUM, Strain/Indicator: TA97, Metabolic Activation: RAT, LIVER, S-9, AROCLOR 1254 (30%), Method: PREINCUBATION) of the same compound?
The mutagenic call was “inactive; negative”.

What about the mutagenic call [11] of the same compound?
Its mutagenic call is “inactive; negative”.

And the mutagenic call [1]?
The mutagenic call was “inactive; negative”.

What about the mutagenic call [2] of the same compound?
Its mutagenic call is “inactive; negative”.

What about the mutagenic call (Test System: AMES SALMONELLA TYPHIMURIUM, Strain/Indicator: TA98, Metabolic Activation: RAT, LIVER, S-9, AROCLOR 1254 (30%), Method: PREINCUBATION) of the same compound?
The mutagenic call was “inactive; negative”.

And the mutagenic call [3]?
The mutagenic call was “inactive; negative”.

What about the mutagenic call (Test System: AMES SALMONELLA TYPHIMURIUM, Strain/Indicator: TA100, Metabolic Activation: HAMSTER, LIVER, S-9, AROCLOR 1254 (30%), Method: PREINCUBATION) of the same compound?
Its mutagenic call is “inactive; negative”.

What about the mutagenic call [4] of the same compound?
Its mutagenic call is “inactive; negative”.

And the mutagenic call [5]?
Its mutagenic call is “inactive; negative”.

And the mutagenic call (Test System: AMES SALMONELLA TYPHIMURIUM, Strain/Indicator: TA100, Metabolic Activation: RAT, LIVER, S-9, AROCLOR 1254 (30%), Method: PREINCUBATION)?
The mutagenic call was “inactive; negative”.

What about the mutagenic call [6] of the same compound?
The mutagenic call was “inactive; negative”.

And the mutagenic call (Test System: AMES SALMONELLA TYPHIMURIUM, Strain/Indicator: TA1535, Metabolic Activation: HAMSTER, LIVER, S-9, AROCLOR 1254 (30%), Method: PREINCUBATION)?
The mutagenic call was “inactive; negative”.

What about the mutagenic call [7] of the same compound?
Its mutagenic call is “inactive; negative”.

And the mutagenic call [8]?
The mutagenic call was “inactive; negative”.

What about the mutagenic call (Test System: AMES SALMONELLA TYPHIMURIUM, Strain/Indicator: TA1535, Metabolic Activation: RAT, LIVER, S-9, AROCLOR 1254 (30%), Method: PREINCUBATION) of the same compound?
Its mutagenic call is “inactive; negative”.

And the mutagenic call (Test System: UDS HUMAN LYMPHOCYTES, Strain/Indicator: THYMIDINE INCORPORATION, Metabolic Activation: NONE, Method: LIQUID SCINTILLATION COUNTING)?
The mutagenic call was “active; positive”.

Source: PubChem BioAssay AID1259407 (Chemical Carcinogenesis Research Information System (CCRIS), 2018)
